Here are results for three compounds from patent US6355453B1, “Method for making fluorinated sugars having a side chain and use thereof” (Forschungszentrum Julich GmbH, priority 1998, dated 2002).

In data set [1] the target is T1, N-acetylneuraminic acid aldolase (Escherichia coli, UniProt P0A6L4). Description: Kinetic study of the aldolase-catalysed ManNAc/F-pyr reaction (Equation 1, non-linear regression of initial-rate data).
Data set [2] has as its target T1, N-acetylneuraminic acid aldolase. The conditions noted are these: value given in the literature; read-out: Km value for the standard ManNAc/Pyr reaction; cited from earlier work.
For a further data set, the system named is O=C(O)C(=O)CF. Description: purified protein, by the assay type. The conditions noted are these: other: ManNAc/F-pyr reaction, 24 U*/ml aldolase, pH 7.5, 25° C.

As for `O=C(O)C(=O)CF` [F-Pyr, 1-fluoro-2-oxopropanoic acid], in data set [1], affinity was put at a Ki of 49 mM. The “maximal activity of the reaction” value in data set [1] (enzyme charge of >24 U*/mg) is listed as 0.9 U/mg. Consider `CC(=O)C(=O)O` [Pyr, pyruvic acid], for which the Km in data set [2] was 8.5 mM. Consider “N-acetylneuraminic acid aldolase (Escherichia coli K-12)”, for which, in the data set on O=C(O)C(=O)CF, the Km came to 41 mM.

The Ki is a dissociation constant, usually derived from enzyme kinetics or from competition with a known ligand. Lower therefore signals a stronger hold on the target.
